#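 Here, GI50 denotes the concentration required for 50% inhibition of growth. The concentration for full growth arrest is given as TGI.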
# Experiments:
# Assay in all cases: DTP human tumour cell line panel, 384-well format
# 786-0 renal = system: 786-0 renal
# MDA-MB-468 breast = system: MDA-MB-468 breast
# OVCAR-3 ovarian = system: OVCAR-3 ovarian
# SK-MEL-5 melanoma = system: SK-MEL-5 melanoma
# SN12C renal = system: SN12C renal
# K-562 leukemia = system: K-562 leukemia
# OVCAR-4 ovarian = system: OVCAR-4 ovarian
# DU-145 prostate = system: DU-145 prostate
# HOP-92 NSCLC = system: HOP-92 NSCLC
# MDA-MB-231 breast = system: MDA-MB-231 breast
# NCI-H322M lung = system: NCI-H322M lung
# SR leukemia = system: SR leukemia
# HL-60(TB) leukemia = system: HL-60(TB) leukemia
# UO-31 renal = system: UO-31 renal
# ACHN renal = system: ACHN renal
# A549 NSCLC = system: A549 NSCLC
# HCT-116 colon = system: HCT-116 colon
# SNB-19 CNS = system: SNB-19 CNS
# BT-549 breast = system: BT-549 breast
# EKVX NSCLC = system: EKVX NSCLC
# A498 renal = system: A498 renal
# IGROV1 ovarian = system: IGROV1 ovarian
# SF-268 CNS = system: SF-268 CNS
# M14 melanoma = system: M14 melanoma
# SK-MEL-2 melanoma = system: SK-MEL-2 melanoma
# OVCAR-8 ovarian = system: OVCAR-8 ovarian
# SF-295 CNS = system: SF-295 CNS
# CAKI-1 renal = system: CAKI-1 renal
# U251 glioblastoma = system: U251 glioblastoma
# T-47D breast = system: T-47D breast
# HCT-15 colon = system: HCT-15 colon
# NCI-H226 lung = system: NCI-H226 lung
# HOP-62 NSCLC = system: HOP-62 NSCLC
# MDA-MB-435 melanoma = system: MDA-MB-435 melanoma
# MALME-3M melanoma = system: MALME-3M melanoma
# RXF 393 renal = system: RXF 393 renal
# UACC-257 melanoma = system: UACC-257 melanoma
# KM12 colon = system: KM12 colon
# SK-MEL-28 melanoma = system: SK-MEL-28 melanoma
# COLO 205 colon = system: COLO 205 colon
# SF-539 CNS = system: SF-539 CNS
# NCI-H460 NSCLC = system: NCI-H460 NSCLC
# HS 578T breast = system: HS 578T breast
# MCF7 breast = system: MCF7 breast
# SNB-75 CNS = system: SNB-75 CNS
# UACC-62 melanoma = system: UACC-62 melanoma
# NCI-H23 lung = system: NCI-H23 lung
# TK-10 renal = system: TK-10 renal
# SK-OV-3 ovarian = system: SK-OV-3 ovarian
# MOLT-4 leukemia = system: MOLT-4 leukemia
# PC-3 prostate = system: PC-3 prostate
# HT29 colon = system: HT29 colon
# NCI-H522 lung = system: NCI-H522 lung
# SW-620 colon = system: SW-620 colon
# OVCAR-5 ovarian = system: OVCAR-5 ovarian
compound,measurement,setting,value
COc1cc2c(N3CCN(C(=O)Nc4ccc(OC(C)C)cc4)CC3)ncnc2cc1OCCCN1CCCCC1,GI50,786-0 renal,8.32 µM
same,TGI,786-0 renal,20.7 µM
same,GI50,MDA-MB-468 breast,3.91 µM
same,TGI,MDA-MB-468 breast,14.5 µM
same,GI50,OVCAR-3 ovarian,14.3 µM
same,TGI,OVCAR-3 ovarian,28.2 µM
same,GI50,SK-MEL-5 melanoma,9 µM
same,TGI,SK-MEL-5 melanoma,21.1 µM
same,GI50,SN12C renal,13.1 µM
same,TGI,SN12C renal,26.2 µM
same,GI50,K-562 leukemia,3.31 µM
same,TGI,K-562 leukemia,11.5 µM
same,GI50,OVCAR-4 ovarian,13.9 µM
same,TGI,OVCAR-4 ovarian,30.5 µM
same,GI50,DU-145 prostate,12.5 µM
same,TGI,DU-145 prostate,26.3 µM
same,GI50,HOP-92 NSCLC,9.13 µM
same,TGI,HOP-92 NSCLC,21.3 µM
same,GI50,MDA-MB-231 breast,13.6 µM
same,TGI,MDA-MB-231 breast,31.4 µM
same,GI50,NCI-H322M lung,12.1 µM
same,TGI,NCI-H322M lung,32.7 µM
same,GI50,SR leukemia,1.93 µM
same,TGI,SR leukemia,3.54 µM
same,GI50,HL-60(TB) leukemia,15 µM
same,TGI,HL-60(TB) leukemia,28.4 µM
same,GI50,UO-31 renal,16.4 µM
same,TGI,UO-31 renal,30.1 µM
same,GI50,ACHN renal,9.76 µM
same,TGI,ACHN renal,22.6 µM
same,GI50,A549 NSCLC,14.1 µM
same,TGI,A549 NSCLC,29 µM
same,GI50,HCT-116 colon,9.38 µM
same,TGI,HCT-116 colon,21.6 µM
same,GI50,SNB-19 CNS,16 µM
same,TGI,SNB-19 CNS,41.6 µM
same,GI50,BT-549 breast,8.6 µM
same,TGI,BT-549 breast,20.8 µM
same,GI50,EKVX NSCLC,5.21 µM
same,TGI,EKVX NSCLC,19.5 µM
same,GI50,A498 renal,5.09 µM
same,TGI,A498 renal,17.3 µM
same,GI50,IGROV1 ovarian,13.4 µM
same,TGI,IGROV1 ovarian,26.9 µM
same,GI50,SF-268 CNS,8.64 µM
same,TGI,SF-268 CNS,21.1 µM
same,GI50,M14 melanoma,12.3 µM
same,TGI,M14 melanoma,24.9 µM
same,GI50,SK-MEL-2 melanoma,3.78 µM
same,TGI,SK-MEL-2 melanoma,12.8 µM
same,GI50,OVCAR-8 ovarian,11.3 µM
same,TGI,OVCAR-8 ovarian,32.3 µM
same,GI50,SF-295 CNS,11.5 µM
same,TGI,SF-295 CNS,23.8 µM
same,GI50,CAKI-1 renal,2.25 µM
same,TGI,CAKI-1 renal,6.6 µM
same,GI50,U251 glioblastoma,11 µM
same,TGI,U251 glioblastoma,23.1 µM
same,GI50,T-47D breast,10.4 µM
same,TGI,T-47D breast,22.3 µM
same,GI50,HCT-15 colon,15.8 µM
same,TGI,HCT-15 colon,29.5 µM
same,GI50,NCI-H226 lung,7.66 µM
same,TGI,NCI-H226 lung,21.5 µM
same,GI50,HOP-62 NSCLC,7.62 µM
same,TGI,HOP-62 NSCLC,21.1 µM
same,GI50,MDA-MB-435 melanoma,13 µM
same,TGI,MDA-MB-435 melanoma,25.9 µM
same,GI50,MALME-3M melanoma,5.03 µM
same,TGI,MALME-3M melanoma,17.2 µM
same,GI50,RXF 393 renal,2.82 µM
same,TGI,RXF 393 renal,9.78 µM
same,GI50,UACC-257 melanoma,1.99 µM
same,TGI,UACC-257 melanoma,4.04 µM
same,GI50,KM12 colon,12.3 µM
same,TGI,KM12 colon,25.1 µM
same,GI50,SK-MEL-28 melanoma,12.3 µM
same,TGI,SK-MEL-28 melanoma,24.8 µM
same,GI50,COLO 205 colon,12.1 µM
same,TGI,COLO 205 colon,24.7 µM
same,GI50,SF-539 CNS,1.84 µM
same,TGI,SF-539 CNS,16.4 µM
same,GI50,NCI-H460 NSCLC,2.48 µM
same,TGI,NCI-H460 NSCLC,12.2 µM
same,GI50,HS 578T breast,4.87 µM
same,TGI,HS 578T breast,17.9 µM
same,GI50,MCF7 breast,3.18 µM
same,TGI,MCF7 breast,15.1 µM
same,GI50,SNB-75 CNS,9.87 µM
same,TGI,SNB-75 CNS,21.6 µM
same,GI50,UACC-62 melanoma,7.65 µM
same,TGI,UACC-62 melanoma,20.6 µM
same,GI50,NCI-H23 lung,12 µM
same,TGI,NCI-H23 lung,25.7 µM
same,GI50,TK-10 renal,10.8 µM
same,TGI,TK-10 renal,25.2 µM
same,GI50,SK-OV-3 ovarian,12.5 µM
same,TGI,SK-OV-3 ovarian,25.2 µM
same,GI50,MOLT-4 leukemia,2.61 µM
same,TGI,MOLT-4 leukemia,5.95 µM
same,GI50,PC-3 prostate,10.8 µM
same,TGI,PC-3 prostate,24 µM
same,GI50,HT29 colon,3.24 µM
same,TGI,HT29 colon,11.3 µM
same,GI50,NCI-H522 lung,12.5 µM
same,TGI,NCI-H522 lung,25 µM
same,GI50,SW-620 colon,10.9 µM
same,TGI,SW-620 colon,23.1 µM
same,GI50,OVCAR-5 ovarian,13.1 µM
same,TGI,OVCAR-5 ovarian,35 µM

# Reference: PubChem BioAssay (NCI)
